The text below walks through data of US10213451B2, “Methods and compounds for modulating the secretion or expression of adhesion proteins or angiopoietins of cells” (PACIFIC ARROW LIMITED, priority 2004, dated 2019).

One assay concerns (lung)H460 cells. The experiment in a line: MTT assay H460. In kind it is cell-based. Conditions: Homo sapiens, NCI-H460. The protocol:
(§1) Cells. Human cancer cell lines were obtained from American Type Culture Collection: HTB-9 (bladder), HeLa-S3 (cervix), DU145 (prostate), H460 (lung), MCF-7 (breast), K562 (leukocytes), HCT116 (colon), HepG2 (liver), U2OS (bone), T98G (brain), SK-MEL-5 (Skin) and OVCAR-3 (ovary). The cells were grown in following culture media: HeLa-53, DU145, MCF-7, Hep-G2 and T98G are in MEN (Earle's salts); HTB-9, H460, K562 and OVCAR-3 in RPMI-1640; HCT-116 and U2OS in McCoy-5A. They are supplemented with 10% fetal calf serum, glutamine and antibiotics, and incubated in an incubator with 5% CO2 humidified at 37° C.
MTT Assay. The procedure for MTT assay followed the method described by Carmichael et al. (1987) with modifications. […] The formazan (product of the reduction of tetrazolium by viable cells) formed and was dissolved with DMSO and the O.D. at 490 nm, and was measured by an ELISA reader. The MTT level of the cells before drug-treatment was also measured (T0). The % cell-growth (% G) is calculated as: % G=(TD−T0/TC−T0)×100(1), where TC or TD represents O.D. readings of control or drug-treated cells. When T0>TD, then the cytotoxicity (LC) expressed as % of the control is calculated as: % LC=(TD−T0/T0)×100(2).
Background: Tetrazolium dyes change colour on reduction, which living cells bring about.

For assay [1], the system named is human ovarian cancer cell lines. The experiment in a line: MTT assay, additional human ovarian cancer cell lines. The class given is cell-based. Conditions: 10 additional human ovarian cancer cell lines. The protocol: (§2) Majority of ovarian cancers arise from the surface epithelium of ovary, most of them belong to the histological subtypes of clear cell and serous carcinoma. We obtained 10 more human ovarian carcinoma cell-lines of these histological subtypes for these studies. The inhibition activity exerted by Xanifolia-Y was determined with MTT assay.

The subject of the next assay is TOV-21G. The experiment in a line: MTT assay TOV-21G. In kind it is cell-based. Conditions: Homo sapiens, TOV21G, Clear cell. Here is the method:
as §2

In assay [2] the test system is ES2 cells inoculated into peritoneal cavity. The experiment in a line: Nodule formation in peritoneal cavity, ES2. In kind it is in vivo, nu/nu mice. Conditions: ES2, 0.25 mg/kg i.p. daily 5 days per week for two-three weeks. The source says:
The relationship between the nodule formation and timelines during tumor progression are established. Usually, 4 to 6 nodules are formed during the entire period of tumor progression in this system (Lander Jr., et al., 2005). We start the drug-treatment at times equivalent to 20% and 50% of full tumor progression. At these times, the number of nodule is less and the size (weight) of the nodules is smaller. At the end of the drug-treatment, animals are euthanized and number of tumor nodules is determined and the tumor size (mass) is weighted.
Animals: 40 nu/nu mice are used per experiment.
2 groups of mice (20 each) (i) Drug-treatment start at time equivalent to 20% of full tumor progression (or on 4 days after tumor inoculation) (ii) Drug-treatment starts at time equivalent to 50% of full tumor progression (or on 10 days after tumor inoculation). On the day of starting drug-treatment, half of the animals (10) will be scarified and the number and weight of nodules will measured.
Drug-Treatments: Animals are administered daily for 5 days per week for two—three weeks. Dose: 0.25 mg/kg, through i.p. route.

The subject of the next assay is SKOV 3. Put plainly: MTT assay SKOV 3. The class given is cell-based. Conditions: Homo sapiens, SK-OV-3; SKOV 3, Serous. Here is the method: as §2
Assay [3] concerns Fibronectin secretion from bladder carcinoma cells (HTB-9). Put plainly: Fibronectin secretion (Western blot), HTB-9 cells. In kind it is cell-based, human. Conditions: 10 ug/ml. For orientation: A western blot detects proteins with antibodies after separation by electrophoresis.
For assay [4], the system named is OVCAR3 cells (from ovary). Put plainly: MTT assay OVCAR3. Conditions: Homo sapiens, OVCAR-3; OVCAR3, Serous. In kind it is cell-based. Here is the method: as §1
MTT Assay. […] The formazan (product of the reduction of tetrazolium by viable cells) formed and was dissolved with DMSO and the O.D. at 490 nm, and was measured by an ELISA reader. The MTT level of the cells before drug-treatment was also measured (T0). The % cell-growth (% G) is calculated as: % G=(TD−T0/TC−T0)×100(1), where TC or TD represents O.D. readings of control or drug-treated cells. When T0>TD, then the cytotoxicity (LC) expressed as % of the control is calculated as: % LC=(TD−T0/T0)×100(2).
Majority of ovarian cancers arise from the surface epithelium of ovary, most of them belong to the histological subtypes of clear cell and serous carcinoma. […] The inhibition activity exerted by Xanifolia-Y was determined with MTT assay.

In assay [5] the test system is Fibronectin secretion from Hey8A (human ovarian carcinoma cells). The experiment in a line: Fibronectin secretion (Western blot), Hey8A cells. The class given is cell-based. Conditions: 10 ug/ml, 24 hours. The protocol: Inhibition of Fibronectin secretion is physiological and the determination of its quantity is based on the following criteria: • 1. Fibronectin is secreted from viable cells. Only cell with over 85% viable cells after drug-treatment are employed in these experiments. The viable cells were determined by MTT assay. • 2. For comparison, the immuno-band intensity from each samples are normalized with cell mass. The cell mass was determined by the MTT assay and is assigned as a MTT unit for each cell sample.
Cells: Hey8A (human ovarian carcinoma cells) were grew in RPMI 1640 medium to 90% confluent before drug-treatment. Drug-treatment: Cells cultures were replaced with fresh RPMI medium containing either DMSO (as control) [D1]; or Xanifolia-Y (10, 15, or 20 ug/ml) [Y1, Y2 and Y3]. Aliquot of medium was removed as 0 hours sample and no FN was detected at this time. After 24 hours, aliquot of culture medium was taken out for Fibronectin determination (Western blot method). Cell viability at 24 hours was determined by MTT assay. Cultures were replaced with RPMI medium (5 ml) with MTT and incubated for an hour. The formation of formazan was dissolved in DMSO and OD at 570 nm was measured.
Western Blot: Spent culture medium (0.6 ml) was mixed with SDS sample buffer (0.2 ml), boiled for 3 minutes before loading to SDS gel. Samples (60 ul/lane) were applied to a 6% SDS gel and electrophoresis was conducted with 100 volts for 2 hours. Protein was transferred to a nitrocellulose paper electrophoretically (30 min at 100 volts). The Western blot was incubated with the first antibody (mouse anti-FN, specific to human FN, SIGMA F0916) and second antibody (Anti-mouse IgG AP conjugated, Promega S3721). The immunobands were developed with BCIP/NBT color development system (Promega S3771).

The test system of assay [6] is (bladder)TB9 cells / HTB-9. Put plainly: MTT assay bladder cells. The class given is cell-based, human. The protocol:
as §1
MTT Assay. The procedure for MTT assay followed the method described by Carmichael et al. (1987) with modifications. The cells were seeded into a 96-well plate at concentration of 10,000/well for HTB-9, HeLa, H460, HCT116, T98G and OVCAR-3), 15,000/well for DU145, MCF-7, HepG2 and U2OS), and 40,000/well for K562 for 24 hours before drug-treatment. The cells were then exposed to the drugs for 48 hours (72 hours for HepG2 and U2OS, and 96 hours for MCF-7). After the drug-treatment, MTT (0.5 mg/mL) was added to cultures and incubated for an hour. The formazan (product of the reduction of tetrazolium by viable cells) formed and was dissolved with DMSO and the O.D. at 490 nm, and was measured by an ELISA reader. The MTT level of the cells before drug-treatment was also measured (T0). The % cell-growth (% G) is calculated as: % G=(TD−T0/TC−T0)×100(1), where TC or TD represents O.D. readings of control or drug-treated cells. When T0>TD, then the cytotoxicity (LC) expressed as % of the control is calculated as: % LC=(TD−T0/T0)×100(2).

The subject of the next assay is OVCAR3 cells. Put plainly: Apoptosis by flow cytometry of GFP-Annexin-V and propidium iodide. Conditions: 24 h after exposure. The class given is cell-based, human. The protocol:
Experiment of apoptosis of OVCAR3 cells after treatment with Xanifolia-Y was assessed with flow cytometry of GFP-Annexin-V and propidium iodide.

The test system of the next assay is Caov 3. The experiment in a line: MTT assay Caov 3. The class given is cell-based. Conditions: Homo sapiens; Caov 3, Serous. Here is the method: as §2

Structures are written as SMILES. In brackets after ≈: the same amount, converted by molar mass.

`C/C=C(/C)C(=O)O[C@H]1[C@H](OC(=O)/C(C)=C\C)[C@@]2(CO)C(CC1(C)C)C1=CCC3[C@@]4(C)CC[C@H](O[C@@H]5OC(C(=O)O)[C@@H](O)C(O[C@@H]6O[C@@H](CO)C(O)C6O)C5O[C@@H]5OC(CO)[C@H](O)C(O)C5O)C(C)(C)C4CC[C@@]3(C)[C@]1(C)[C@@H](O)[C@H]2O` (stereo partly drawn) [Xanifolia-Y, 3-O-[β-D-galactopyranosyl (1→2)]-α-L-arabinofuranosy (1→3)-β-D-glucuronopyranosyl-21,22-O-diangeloyl-3β, 15α, 16α, 21β, 22α, 28-hexahydroxyolean-12-ene]: the IC50 – broadly, the concentration that inhibits the measured activity by half – with (lung)H460 cells was 7.5 µg/mL (≈ 6.57 µM); in [1], 2 to 12 µM; in [1] (Homo sapiens), 2 to 10 µM; with TOV-21G, 2.2 µM; in the assay with SKOV 3, 10.5 µM; in assay [4], 2.2 µM. The IC50 worked out at 5 µg/mL (≈ 4.38 µM) in assay [6] (Homo sapiens, (bladder)TB9 cells, read-out: IC50) and 7 µM in the assay on Caov 3. Also, in assay [2], the “numbers of tumor nodules” value is given as “less”. Moreover, the size of tumor entry in assay [2] is reported as “smaller”. The “% inhibition of Fibronectin secretion” value was “about 50%” in [3] and 51% in assay [3] (listed as Y3). In addition, the inhibition (as a rule, the drop in the measured response relative to a control, in per cent) at 10 µg/mL in assay [3] (Homo sapiens) was 50%; in assay [5] (Homo sapiens, Ovarian carcinoma cell), 69%. Also, the “Fibronectin secreted as compared with the DMSO control” value in [5] was 31%. Further, in assay [5], the “average band intensity after corrected with the MTT unit” value was determined as 366. In assay [6] (HTB-9, 10 ug/ml), the “growth of cells compared to the DMSO control (MTT)” value is listed as 77%-91%. Also, the “form of cell death induced” value in the assay with OVCAR3 cells is recorded as “apoptosis is a major form of cell death”.
